Data reported in US11472791B2 (Incyte Corporation, priority 2019, dated 2022).

molecular target: CDK2/Cyclin E1 (Homo sapiens (Human), UniProt P24941); assay: CDK2/Cyclin E1 HTRF enzyme activity assay; type: biochemical; settings: 1 mM ATP
Procedure: Assays are conducted in white 384-well polystyrene plates in a final reaction volume of 8 μL. […] HTRF signals are read after 1 hour at room temperature on a PHERAstar FS plate reader (BMG Labtech). Data is analyzed with IDBS XLFit and GraphPad Prism 5.0 software using a three or four parameter dose response curve to determine IC50 for each compound.

Row | IC50 | Structure (SMILES)
1 | < 50 nM | CN1CCN(Cc2ccc(-n3cc(-c4nc(N[C@H]5CCN(S(C)(=O)=O)C[C@H]5F)ncc4C#N)cn3)c(Cl)c2)CC1 [Example 111, 4-(1-(2-Chloro-4-((4-methylpiperazin-1-yl)methyl)phenyl)-1H-pyrazol-4-yl)-2-(((3R,4S)-3-fluoro-1-(methylsulfonyl)piperidin-4-yl)amino)pyrimidine-5-carbonitrile]
2 | < 50 nM | CCS(=O)(=O)N1CCC(Nc2ncc(C#N)c(-c3cnn(-c4ccc(CNC)cc4Cl)c3)n2)CC1 [Example 112, 4-(1-(2-Chloro-4-((methylamino)methyl)phenyl)-1H-pyrazol-4-yl)-2-((1-(ethylsulfonyl)piperidin-4-yl)amino)pyrimidine-5-carbonitrile]
3 | < 50 nM | CNCc1ccc(-n2cc(-c3nc(NC4CCN(S(=O)(=O)C5CC5)CC4)ncc3C#N)cn2)c(Cl)c1 [Example 114, 4-(1-(2-Chloro-4-((methylamino)methyl)phenyl)-1H-pyrazol-4-yl)-2-((1-(cyclopropylsulfonyl)piperidin-4-yl)amino)pyrimidine-5-carbonitrile]
4 | < 50 nM | CCNCc1ccc(-n2cc(-c3nc(NC4CCN(S(C)(=O)=O)CC4)ncc3C#N)cn2)c(Cl)c1 [Example 115, 4-(1-(2-Chloro-4-((ethylamino)methyl)phenyl)-1H-pyrazol-4-yl)-2-((1-(methylsulfonyl)piperidin-4-yl)amino)pyrimidine-5-carbonitrile]
5 | < 50 nM | CNCc1ccc(-n2cc(-c3nc(N[C@H]4CCN(S(C)(=O)=O)C[C@H]4F)ncc3C#N)cn2)c(Cl)c1 [Example 116, 4-(1-(2-Chloro-4-((methylamino)methyl)phenyl)-1H-pyrazol-4-yl)-2-(((3R,4S)-3-fluoro-1-(methylsulfonyl)piperidin-4-yl)amino)pyrimidine-5-carbonitrile]
6 | < 50 nM | CCS(=O)(=O)N1CC[C@H](Nc2ncc(C#N)c(-c3cnn(-c4ccc(CNC)cc4Cl)c3)n2)[C@H](F)C1 [Example 117, 4-(1-(2-Chloro-4-((methylamino)methyl)phenyl)-1H-pyrazol-4-yl)-2-(((3R,4S)-1-(ethylsulfonyl)-3-fluoropiperidin-4-yl)amino)pyrimidine-5-carbonitrile]
7 | < 50 nM | CCCS(=O)(=O)N1CC[C@H](Nc2ncc(C#N)c(-c3cnn(-c4ccc(CNC)cc4Cl)c3)n2)[C@H](F)C1 [Example 118, 4-(1-(2-Chloro-4-((methylamino)methyl)phenyl)-1H-pyrazol-4-yl)-2-(((3R,4S)-3-fluoro-1-(propylsulfonyl)piperidin-4-yl)amino)pyrimidine-5-carbonitrile]
8 | < 50 nM | CNCc1ccc(-n2cc(-c3nc(N[C@H]4CCN(S(=O)(=O)C(C)C)C[C@H]4F)ncc3C#N)cn2)c(Cl)c1 [Example 119, 4-(1-(2-Chloro-4-((methylamino)methyl)phenyl)-1H-pyrazol-4-yl)-2-(((3R,4S)-3-fluoro-1-(isopropylsulfonyl)piperidin-4-yl)amino)pyrimidine-5-carbonitrile]
9 | < 50 nM | CNCc1ccc(-n2cc(-c3nc(N[C@H]4CCN(S(=O)(=O)C5CC5)C[C@H]4F)ncc3C#N)cn2)c(Cl)c1 [Example 120, 4-(1-(2-Chloro-4-((methylamino)methyl)phenyl)-1H-pyrazol-4-yl)-2-(((3R,4S)-1-(cyclopropylsulfonyl)-3-fluoropiperidin-4-yl)amino)pyrimidine-5-carbonitrile]
10 | < 50 nM | CNCc1ccc(-n2cc(-c3nc(N[C@H]4CCN(S(=O)(=O)C5CCC5)C[C@H]4F)ncc3C#N)cn2)c(Cl)c1 [Example 121, 4-(1-(2-Chloro-4-((methylamino)methyl)phenyl)-1H-pyrazol-4-yl)-2-(((3R,4S)-1-(cyclobutylsulfonyl)-3-fluoropiperidin-4-yl)amino)pyrimidine-5-carbonitrile]
11 | < 50 nM | CNCc1ccc(-n2cc(-c3nc(N[C@H]4CCN(S(=O)(=O)CCCC#N)C[C@H]4F)ncc3C#N)cn2)c(Cl)c1 [Example 122, 4-(1-(2-Chloro-4-((methylamino)methyl)phenyl)-1H-pyrazol-4-yl)-2-(((3R,4S)-1-((3-cyanopropyl)sulfonyl)-3-fluoropiperidin-4-yl)amino)pyrimidine-5-carbonitrile]
12 | < 50 nM | CNCc1ccc(-n2cc(-c3nc(N[C@H]4CCN(S(=O)(=O)C5CC5)C[C@H]4F)ncc3C(F)(F)F)cn2)c(C)c1 [Example 123, N-((3R,4S)-1-(Cyclopropylsulfonyl)-3-fluoropiperidin-4-yl)-4-(1-(2-methyl-4-((methylamino)methyl)phenyl)-1H-pyrazol-4-yl)-5-(trifluoromethyl)pyrimidin-2-amine]
13 | < 50 nM | CNCc1ccc(-n2cc(-c3nc(NC4CCN(S(C)(=O)=O)CC4)ncc3Cl)cn2)c(Cl)c1 [Example 124, 5-Chloro-4-(1-(2-chloro-4-((methylamino)methyl)phenyl)-1H-pyrazol-4-yl)-N-(1-(methylsulfonyl)piperidin-4-yl)pyrimidin-2-amine]
14 | < 50 nM | CCNCc1ccc(-n2cc(-c3nc(NC4CCN(S(=O)(=O)CC)CC4)ncc3C#N)cn2)c(C)n1 [Example 125, 4-(1-(6-((Ethylamino)methyl)-2-methylpyridin-3-yl)-1H-pyrazol-4-yl)-2-((1-(ethylsulfonyl)piperidin-4-yl)amino)pyrimidine-5-carbonitrile]
15 | < 50 nM | CNCc1ccc(-n2cc(-c3nc(NC4CCN(S(=O)(=O)c5cn(C)cn5)CC4)ncc3C#N)cn2)c(C)n1 [Example 126, 2-((1-((1-Methyl-1H-imidazol-4-yl)sulfonyl)piperidin-4-yl)amino)-4-(1-(2-methyl-6-((methylamino)methyl)pyridin-3-yl)-1H-pyrazol-4-yl)pyrimidine-5-carbonitrile]
16 | < 50 nM | CCNCc1ccc(-n2cc(-c3nc(NC4CCN(S(=O)(=O)c5cn(C)cn5)CC4)ncc3C#N)cn2)c(C)n1 [Example 127, 4-(1-(6-((Ethylamino)methyl)-2-methylpyridin-3-yl)-1H-pyrazol-4-yl)-2-((1-((1-methyl-1H-imidazol-4-yl)sulfonyl)piperidin-4-yl)amino)pyrimidine-5-carbonitrile]
17 | < 50 nM | [2H]C([2H])([2H])NCc1ccc(-n2cc(-c3nc(NC4CCN(S(C)(=O)=O)CC4)ncc3C(F)(F)F)cn2)c(C)c1 [Example 128, 4-(1-(2-Methyl-4-(((methyl-d3)amino)methyl)phenyl)-1H-pyrazol-4-yl)-N-(1-(methylsulfonyl)piperidin-4-yl)-5-(trifluoromethyl)pyrimidin-2-amine]
18 | < 50 nM | [2H]C([2H])([2H])NCc1ccc(-n2cc(-c3nc(NC4CCN(S(=O)(=O)CC)CC4)ncc3C(F)(F)F)cn2)c(C)c1 [Example 129, N-(1-(Ethylsulfonyl)piperidin-4-yl)-4-(1-(2-methyl-4-(((methyl-d3)amino)methyl)phenyl)-1H-pyrazol-4-yl)-5-(trifluoromethyl)pyrimidin-2-amine]
19 | < 50 nM | [2H]C([2H])([2H])NCc1ccc(-n2cc(-c3nc(NC4CCN(S(=O)(=O)C5CC5)CC4)ncc3C(F)(F)F)cn2)c(C)c1 [Example 130, N-(1-(Cyclopropylsulfonyl)piperidin-4-yl)-4-(1-(2-methyl-4-(((methyl-d3)amino)methyl)phenyl)-1H-pyrazol-4-yl)-5-(trifluoromethyl)pyrimidin-2-amine]
20 | < 50 nM | [2H]C([2H])([2H])NCc1ccc(-n2cc(-c3nc(NC4CCN(S(=O)(=O)c5ccn(C)n5)CC4)ncc3C(F)(F)F)cn2)c(C)c1 [Example 131, N-(1-((1-Methyl-1H-pyrazol-3-yl)sulfonyl)piperidin-4-yl)-4-(1-(2-methyl-4-(((methyl-d3)amino)methyl)phenyl)-1H-pyrazol-4-yl)-5-(trifluoromethyl)pyrimidin-2-amine]
21 | < 50 nM | [2H]C([2H])([2H])NCc1ccc(-n2cc(-c3nc(N[C@H]4CCN(S(C)(=O)=O)C[C@H]4F)ncc3C(F)(F)F)cn2)c(C)c1 [Example 132, N-((3R,4S)-3-Fluoro-1-(methylsulfonyl)piperidin-4-yl)-4-(1-(2-methyl-4-(((methyl-d3)amino)methyl)phenyl)-1H-pyrazol-4-yl)-5-(trifluoromethyl)pyrimidin-2-amine]
22 | < 50 nM | [2H]C([2H])([2H])NCc1ccc(-n2cc(-c3nc(N[C@H]4CCN(S(=O)(=O)C5CC5)C[C@H]4F)ncc3C(F)(F)F)cn2)c(C)c1 [Example 133, N-((3R,4S)-1-(Cyclopropylsulfonyl)-3-fluoropiperidin-4-yl)-4-(1-(2-methyl-4-(((methyl-d3)amino)methyl)phenyl)-1H-pyrazol-4-yl)-5-(trifluoromethyl)pyrimidin-2-amine]
23 | < 50 nM | [2H]C([2H])([2H])NCc1ccc(-n2cc(-c3nc(NC4CCN(S(C)(=O)=O)CC4)ncc3Cl)cn2)c(Cl)c1 [Example 134, 5-Chloro-4-(1-(2-chloro-4-(((methyl-d3)amino)methyl)phenyl)-1H-pyrazol-4-yl)-N-(1-(methylsulfonyl)piperidin-4-yl)pyrimidin-2-amine]
24 | < 50 nM | [2H]C([2H])([2H])NCc1ccc(-n2cc(-c3nc(NC4CCN(S(=O)(=O)C5CC5)CC4)ncc3Cl)cn2)c(Cl)c1 [Example 135, 5-Chloro-4-(1-(2-chloro-4-(((methyl-d3)amino)methyl)phenyl)-1H-pyrazol-4-yl)-N-(1-(cyclopropylsulfonyl)piperidin-4-yl)pyrimidin-2-amine]
25 | < 50 nM | [2H]C([2H])([2H])NCc1ccc(-n2cc(-c3nc(NC4CCN(S(=O)(=O)c5cn(C)cn5)CC4)ncc3Cl)cn2)c(C)c1 [Example 136, 5-Chloro-N-(1-((1-methyl-1H-imidazol-4-yl)sulfonyl)piperidin-4-yl)-4-(1-(2-methyl-4-(((methyl-d3)amino)methyl)phenyl)-1H-pyrazol-4-yl)pyrimidin-2-amine]
26 | < 50 nM | [2H]C([2H])([2H])NCc1ccc(-n2cc(-c3nc(NC4CCN(S(=O)(=O)c5ccn(C)n5)CC4)ncc3Cl)cn2)c(C)c1 [Example 137, 5-Chloro-N-(1-((1-methyl-1H-pyrazol-3-yl)sulfonyl)piperidin-4-yl)-4-(1-(2-methyl-4-(((methyl-d3)amino)methyl)phenyl)-1H-pyrazol-4-yl)pyrimidin-2-amine]
